Assay results taken from paper PMC7750480, “A hybrid approach reveals the allosteric regulation of GTP cyclohydrolase I” (Proceedings of the National Academy of Sciences of the …, 2020).
Substitutions are numbered along the chain they refer to.

How the values were obtained:
Type in all cases: binding
GCH1 [1] = target: T1, GCH1 (Homo sapiens, UniProt P30793); test: protein-detected NMR titration (1H,13C HMQC), wild-type GCH1
T1 construct: The hGCH1 (42-250, N-terminal 6xHis Tag and TEV cleavage site); 6xHis (N); TEV cleavage site (N); made in house; host or cells: E. coli BL21(DE3)
T1 sequence (P30793 42-250): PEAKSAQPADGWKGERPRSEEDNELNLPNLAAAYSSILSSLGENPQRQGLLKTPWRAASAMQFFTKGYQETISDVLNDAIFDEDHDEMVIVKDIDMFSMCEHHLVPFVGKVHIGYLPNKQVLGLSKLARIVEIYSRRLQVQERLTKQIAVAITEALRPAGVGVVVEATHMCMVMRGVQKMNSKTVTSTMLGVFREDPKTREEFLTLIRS
Experimental: (§1) Finally, the F122A mutant was generated and characterized to check whether the structurally observed, F122-dependent closure of the active site plays a key role in GCH1 function. […] The fitted dissociation constant KD of GCH1 for the nonhydrolyzable GTP analog 7-deaza-GTP was determined by protein-detected NMR titrations. […] Therefore, the missing enzyme activity of the F122 mutant cannot be explained by reduced affinity to the substrate and must have other underlying causes.
(§2) Perdeuterated protein with selectively labeled protonated and ^13C-labeled alanine, isoleucine, leucine, and valine methyl groups {Ala^β-[^13CH3]; Ile^δ1-[^13CH3]; Leu^δ,Val^γ-[^12CD3/^13CH3]} was expressed as described in the literature ([64]). […] All spectra were recorded on a Bruker Avance III 800 MHz NMR spectrometer equipped with a cryogenic triple-resonance probe at 298 K. Fifty micromolars perdeuterated GCH1 monomer with selectively labeled methyl groups was dissolved in 1× PBS in D2O. The ^1H,^13C-HMQC spectra of the protein were recorded with increasing concentration of the nonhydrolyzable GTP analog 7-deaza-GTP up to a final concentration of 3.5 mM. Spectra were processed with Bruker Topspin 3.5 and analyzed using CcpNmr ([65]) analysis version 2. Chemical shift perturbation (CSP) was calculated using Eq. 1 and the binding curve was fitted using Eq. 2. […]

GCH1 F122A mutant = target: T2, GCH1 F122A mutant (Homo sapiens, UniProt P30793, F122A); test: protein-detected NMR titration (1H,13C HMQC), F122A mutant
T2 construct: The hGCH1 (42-250, N-terminal 6xHis Tag and TEV cleavage site); 6xHis (N); TEV cleavage site (N); made in house; host or cells: E. coli BL21(DE3)
T2 sequence (P30793 42-250 F122A): T1 sequence (P30793 42-250) with F81A
Experimental: as §1, §2

GCH1 [2] = target: T1, GCH1; test: STD-NMR titration of 7-deaza-GTP to GCH1 (initial slopes of build-up curves)
Description: To shed more light onto the mechanism of BH4-induced inhibition of GCH1, we used saturation transfer difference (STD) NMR spectroscopy to study binding of the substrate analog 7-deaza-GTP to GCH1. STD-NMR can be used to determine the KD of ligands (feasible in the range between 10^−2 and 10^−6 M) and allows the making of qualitative statements about the change of ligand binding kinetics ([28]–[31]). STD-NMR experiments were based on a titration of 7-deaza-GTP to GCH1 in the presence or absence of BH4. We measured a series of STD build-up curves (i.e., STD effects at a constant ligand concentration but increasing saturation times) at each 7-deaza-GTP concentration for the protons H7 and H1′ of the substrate analog. From the concentration dependence of the initial build-up slopes, the dissociation constant as well as the maximum STD amplification for the monitored proton signal can be derived (Fig. 6 A and B).
Fig. 6. KD determination using initial slopes from STD-NMR build-up curves. (A) For each ligand concentration, a set of measurements was recorded applying different saturation times (tsat). To obtain STD-AFmax values and the saturation rate constants ksat from STD-NMR build-up curves, experimental STD-AF values were fit to a rising exponential: STD-AF = STD-AFmax (1−exp (−ksat tsat)). From the fitting parameters, initial build-up slopes (tsat = 0) were calculated: STD-AF0 = STD-AFmax ksat. These STD-AF0 values were plotted against the ligand concentration, yielding a binding isotherm from which KD can be derived by fitting the Langmuir binding model: STD-AF0 = Amax/(1+(KD/c)). Amax is a scaling factor representing the maximum STD amplification. Two different 7-deaza-GTP protons (H1′ and H7) were monitored in these experiments. (C) Assignment of relevant protons on structural formula of 7-deaza-GTP. TEXT PRINTED IN THE PICTURE: (B) H1': KD: 52 (5mM BH4); Amax: 732 (5mM BH4); KD: 326 (no BH4); Amax: 177 (no BH4) | (B) H7: KD: 157 (5mM BH4); Amax: 729 (5mM BH4); KD: 977 (no BH4); Amax: 400 (no BH4) DOUBTS OF THE COPYIST ABOUT THIS PICTURE: Panel B: the row labels H1' and H7 are monitored protons of one ligand (printed in panel A as 7da-GTP / 7-Deaza-GTP), not separate compounds; they are used as labels as printed / Panel B: no unit is printed for KD or Amax in the table
All NMR experiments were performed at 25 °C on a Bruker HD 600-MHz spectrometer equipped with a cryogenic QCI probe head. Deuterium oxide (D2O) NMR buffer solution containing 40 mM of a NaH2PO4 and Na2HPO4 mixture with 150 mM sodium chloride (NaCl) was adjusted to a pD of 7.4 (corrected). Suppression of broad protein resonances was achieved by a T1ρ filter ([60]), formed by a 50-ms spin lock pulse. STD-NMR spectra were acquired with WATERGATE water suppression using W5 hard pulse trains ([61]). Difference spectrum ligand signal intensities were divided by corresponding off-resonance spectrum signal intensities, resulting in relative STD intensity values. Multiplication by ligand excess factor yielded STD amplification factor (STD-AF) values ([28]). For selective protein signal saturation, a cascade of Gaussian-shaped pulses was applied. Series of measurements with different total saturation times (tsat) covering a range between 1.2 and 7.2 s were recorded for extraction of initial slopes from STD-AF build-up plots. An additional relaxation delay varying from 2.8 s to 0.4 s was inserted before the saturation cascade to keep constant the total time per scan. On-resonance irradiation was set to 0.16 parts per million (ppm), and off-resonance irradiation was set to 66 ppm. Depending on the ligand concentration, 64 to 1,024 scans were acquired for the STD experiments (32 to 512 scans each for on- and off-resonance). Considering the STD-AF to be directly proportional to the fraction of bound receptor gives rise to a hyperbolic dose–response curve (specific one-site binding model) when STD-AF values are measured with different ligand concentrations ([31]). […]

Nc1nc2c(ccn2C2OC(COP(=O)(O)OP(=O)(O)OP(=O)(O)O)C(O)C2O)c(=O)[nH]1 (stereo not shown) [7-deaza-GTP]
Kd (GCH1 [1]): 798 µM
Kd (GCH1 F122A mutant): 669 µM
increase of maximum STD amplification (Amax), factor (GCH1 [2]; BH4-inhibited GCH1 compared to the uninhibited enzyme): about 3
factor of tighter binding to the allosterically inhibited GCH1 (GCH1 [2]; BH4-inhibited vs uninhibited GCH1): ~6
Kd (GCH1 [2]; KD (STD-NMR, initial slopes), proton H1', 5mM BH4): 52 µM
Kd (GCH1 [2]; KD (STD-NMR, initial slopes), proton H1', no BH4): 326 µM
Kd (GCH1 [2]; KD (STD-NMR, initial slopes), proton H7, 5mM BH4): 157 µM
Kd (GCH1 [2]; KD (STD-NMR, initial slopes), proton H7, no BH4): 977 µM
Kd (GCH1 [2]; KD, BH4-bound inhibited hGCH1): ~100 µM
Kd (GCH1 [2]; KD, free, active hGCH1): ~600 µM
